Test results from US20040062782A1, “Addition of insect repellent during rinse cycle” (priority 2002, published 2004).

Tested on: insects
Test: Insect repellence of articles treated with DEET during the rinse cycle of an automated washing machine
Type: in vivo
Protocol: The present invention centers around adding a insect repellent to articles during the rinse cycle of a washing machine. During the rinse cycle, detergent and stains are dissolved into the fluid medium, while the insect repellent is added to the fluid medium and disseminates throughout the fluid medium and articles within the washing machine and is retained by the contents of the washing machine as the fluid medium is partially removed. As the damp articles are removed from the washing machine and subsequently dried, the insect repellent is retained therein as the fluid medium is removed. While there are various application rates of DEET that produce the desired effect of repelling insects from articles under different conditions, it has been found sufficient to provide along the order of 1 fluid ounce of DEET to the articles during the rinse cycle of an automated washing machine. […] It is also within the scope and spirit of the present invention to add […] more than 1 fluid ounce to increase the concentration of DEET retained by the articles after the rinse cycle is complete. For example, if the articles may be exposed to elevated temperatures for an extended period, say 2 hours or more, the amount of DEET added during the rinse cycle may be higher to compensate for the higher amount of DEET emanating from the articles at the elevated temperatures. […] However, higher or lower ratios may be utilized depending upon the conditions of intended use of the articles or the intended duration of insect repellence. As discussed above, the ratio may be […] along the lines of 1:1 to 2:1 to impart insect repellence in accordance with increased exposure to elevated temperatures, and/or to provide insect repellence during a longer duration.

## CCN(CC)C(=O)c1cccc(C)c1 [DEET, N,N-diethyl-m-toluamide]
On the order of 1 fluid ounce of DEET added to the articles during the rinse cycle, article in use
  insect repellence (duration) while the article is being used: approximately 24 hours
On the order of 1 fluid ounce of DEET added to the articles during the rinse cycle, stored articles
  extended insect repellence (duration) for stored articles: approximately one month
Ratio of 4:1 to 5:1 (in fluid ounces) of fabric softener and/or other components to DEET, added to the rinse cycle
  repelling insects from the articles: provides the desired effect of repelling insects from the articles
